We go through six compounds from patent US8030071B2, “Restoration of cholesterol independence and its use as a selectable marker in NS0 cell culture” (priority 2005, dated 2011).

Assay [1] relates to NS0 cells. Nature of the assay: Growth response of NS0 cells in 24-well plates to cholesterol biosynthesis precursors/intermediates. Type of assay: cell-based, mouse. The note with it: cholesterol-free CD Hybridoma medium, 4 mg/ml fatty acid-free BSA, three concentrations per precursor.
Description: Cells and cell culture. […] Growth response of NS0 cells to various cholesterol biosynthesis pathway precursors and intermediates was studied in CD Hybridoma medium (Invitrogen, Carlsbad, Calif., USA) without cholesterol-lipid concentrate. […] Each well containing 1.5 ml precursor-supplemented medium was seeded with 2×10^5 cells/ml. NS0 cells cultured in the presence of cholesterol served as the positive control. Different intermediates were dissolved in 100% ethanol and added to the culture medium along with 4 mg/ml fatty acid-free BSA (Sigma, St. Louis, Mo., USA). […] All test conditions were performed in duplicate. The medium was supplemented with 4 mg/ml fatty acid-free BSA.
The test system of assay [2] is NS0 cells. Nature of the assay: Growth kinetics of NS0 cells in tissue culture flasks with sterol supplement. Type of assay: cell-based, mouse. The note with it: 5.0 μg/ml sterol, 4 mg/ml fatty acid-free BSA; for maximum cell density: after 70 hrs in culture; for growth of NS0 cells supported: tissue culture flasks. Here is the method: The medium in all four flasks was supplemented with 4 mg/ml fatty acid-free BSA.
Cells and cell culture. NS0 and NS0_r, the cholesterol independent revertant, were obtained from Pfizer, Inc. (St. Louis, Mo.) and have been described previously (Seth et al., Biotechnol Bioeng, 90:552-67, 2005). Growth response of NS0 cells to various cholesterol biosynthesis pathway precursors and intermediates was studied in CD Hybridoma medium (Invitrogen, Carlsbad, Calif., USA) without cholesterol-lipid concentrate. […] Each well containing 1.5 ml precursor-supplemented medium was seeded with 2×10^5 cells/ml. NS0 cells cultured in the presence of cholesterol served as the positive control. Different intermediates were dissolved in 100% ethanol and added to the culture medium along with 4 mg/ml fatty acid-free BSA (Sigma, St. Louis, Mo., USA). […] Citric acid anhydrous, mevalonolactone, squalene, lanosterol, lathosterol, 7-dehydrocholesterol and cholesterol powder were purchased from Sigma (St. Louis, Mo., USA). All test conditions were performed in duplicate. The medium was supplemented with 4 mg/ml fatty acid-free BSA. Presence of BSA facilitates uptake of the sterol precursors (Sato et al., Mol Biol Med, 2, 121-34:1984).
In order to verify the block between lanosterol and lathosterol in the cholesterol biosynthetic pathway, growth kinetics of NS0 cells in the presence of lanosterol (5.0 μg/ml), lathosterol (5.0 μg/ml) and cholesterol (5.0 μg/ml) were determined. Cells were also grown in basal medium supplemented with fatty acid-free BSA only (FIG. 2b). […] Cells attained a maximum cell density of 4×10^6 cells/ml after 70 hrs in culture with lathosterol, compared to 3×10^6 cells/ml in medium supplemented with cholesterol. These observations were consistent over repeated cultures. The results support the notion that the block between lanosterol and lathosterol in the biosynthesis of cholesterol in NS0 is at least partly responsible for cholesterol auxotrophy in this cell line.

In the next assay the test system is Hsd17b7. Nature of the assay: Hsd17b7 transcription after 5-azacytidine treatment (real-time PCR). Type of assay: cell-based, mouse. The note with it: NS0 cells treated with 5-azacytidine.
Another assay relates to other systems. The note with it: baseline spontaneous reactivation frequency of 10^−5 or less (Holliday et al.); cited from earlier work.
The test system of assay [3] is NS0 cells. Nature of the assay: 5-azacytidine treatment and limiting dilution plating for cholesterol independent clones. Type of assay: cell-based, mouse. Here is the method:
Treatment with 5-azacytidine (5azaC) and isolation of cholesterol independent clones. NS0 cells at 200,000 cells/ml were treated with 5azaC (1 μM and 5 μM) in tissue culture flasks. After 48 hrs, the cells were washed and limiting dilution plating was carried out in 10 96-well plates at a dilution of 2,000 cells/well using CD Hybridoma medium without cholesterol supplement. Untreated NS0 cells were also plated in cholesterol-free medium as a control for background cholesterol independent variants in the cell population. The plates were incubated at 5% CO2, 37° C. and saturated humidity for 1-2 weeks.
5azaC treated cells were aliquoted into 96-well cell culture plates containing cholesterol-free medium. […] Single cell colonies were isolated from the 96-well culture plates and expanded to tissue culture flasks for further characterization.

Description for Hsd17b7: Reverse Transcription and Real-time comparative quantitative PCR. Total RNA was extracted from cells in exponential growth phase using the RNeasy Mini Kit (Qiagen, Valencia, Calif., USA), followed by reverse transcription with Superscript™ II RNase H^− Reverse Transcriptase (Invitrogen). For real-time comparative PCR analysis, samples were prepared using QuantiTect SYBR Green PCR kit (Qiagen) and reactions run on ABI 7700 (Applied Biosystems, Foster City, Calif., USA). Samples were analyzed in duplicates and β-actin was used as the normalization message. The fold change was calculated using the comparative CT method.

On to `CC(C)CCC[C@@H](C)[C@H]1CC[C@H]2C3=CC[C@H]4C[C@@H](O)CC[C@]4(C)[C@H]3CC[C@]12C` [lathosterol], for which, in the assay on NS0 cells [1], the “growth of NS0 cells supported by precursor/intermediate” value (“growth … by precursor/intermediate” for short) is given as “able to support the growth of cells”. In addition, in the assay with NS0 cells [2], the maximum cell density is on record as 4×10^6 cells/ml and the “growth of NS0 cells supported” value is “effective in promoting the growth of NS0 cells”.

Regarding `CC(C)CCC[C@@H](C)[C@H]1CC[C@H]2[C@@H]3CC=C4C[C@@H](O)CC[C@]4(C)[C@H]3CC[C@]12C` [cholesterol], the maximum cell density in the assay with NS0 cells [2] is 3×10^6 cells/ml.

Consider `CC(C)=CCC/C(C)=C/CC/C(C)=C/CC/C=C(\C)CC/C=C(\C)CCC=C(C)C` [squalene], for which the “growth … by precursor/intermediate” value in the assay with NS0 cells [1] is recorded as “Growth was not supported”.

On to `CC(C)=CCC[C@@H](C)[C@H]1CC[C@@]2(C)C3=C(CC[C@]12C)[C@@]1(C)CC[C@H](O)C(C)(C)[C@@H]1CC3` [lanosterol], for which the “growth … by precursor/intermediate” value in the assay on NS0 cells [1] was “Growth was not supported”. Further, the “growth of NS0 cells supported” value in the assay with NS0 cells [2] was “unable to support the growth of NS0 cells”.

For `C[C@@]1(O)CCOC(=O)C1` [mevalonolactone], the “growth … by precursor/intermediate” value in the assay on NS0 cells [1] is on record as “Growth was not supported”.

For the compound `Nc1ncn([C@@H]2O[C@H](CO)[C@@H](O)[C@H]2O)c(=O)n1` [5azaC, 5-azacytidine], in the assay on Hsd17b7, the “transcriptional repression of Hsd17b7” value is recorded as “relieved”. In addition, in the assay with other systems, the reactivated cells is 10-30%. Also, in the assay on NS0 cells [3] (1 μM 5azaC), the “reversion rate to cholesterol independence” value was “less than 1×10^−6”. For the same compound, the “Survival frequency of wells in a 96-well plate culture” value in the assay with NS0 cells [3] (5 μM 5azaC, 2,000 cells/well, cholesterol-free medium) is ~80 % of wells. For the same compound, the “cholesterol revertants after exposure” value with NS0 cells [3] (5 μM 5azaC, 48 hrs, then cholesterol-free medium) is “many cholesterol revertants”.
